Data on 27 compounds can be found in patent US10597405B2, “Chemical compounds” (ASTRAZENECA AB, priority 2017, dated 2020).

The target of test [1] is T1, KRasG12C (Homo sapiens, UniProt P01116, G12C).
T1 construct: biotin (biotinylated); made in house
Description: KRasG12C functional assay (HTRF nucleotide exchange / Raf RBD binding). The class given is biochemical. Conditions: GDP loaded biotinylated KRasG12C, samples incubated 4 hrs, FRET readout; single experiment or average of two or more. The method, then: KRasG12C Functional Assay
All enzyme and substrate solutions were prepared in assay buffer containing 20 mM HEPES (pH 7.5), 5 mM MgCl2, 150 mM NaCl, and 0.01% Tween 20. […] In a separate mix 20 nM GST-Raf Ras binding domain (GST-Raf RBD, purified in house) and 4 μg/ml anti-GST XL665 antibody (Cisbio) was prepared in assay buffer containing 50 mM Potassium Fluoride and 0.05 mg/ml BSA and equilibrated for 4 hours before adding 0.6 μM Guanosine 5′-[γ-thio]triphosphate (GTPγS, Sigma) and 0.08 μM SOS (purified in house). 5 μl of the GST-RAF RBD mix was then dispensed into each well of the assay plate. […] This is detected simultaneously via the specific binding interaction between active GTPγS KRas^G12C with GST-Raf RBD which brings the europium and XL665 into close proximity enabling an increased FRET signal to be detected on a Pherastar (BMG) plate reader equipped with the HTRF filter module. […] IC50 values were calculated from normalised dose-response response FRET data curve fitted in Genedata screener (Basel, Switzerland).
In general terms: In TR-FRET formats the signal depends on donor and acceptor labels being close together.

In test [2] the target is T1, KRasG12C. Description: KRasG12C Mass Spectrometry adducting assay. The class given is binding. Conditions: 10 μM test compound, 4 μM KRasG12C, 4 hours reaction; single experiment or average of two or more. As for the experimental part: KRasG12C Mass Spectrometry Adducting Assay
Enzyme solutions were prepared in assay buffer containing 20 mM HEPES (pH 7.5), 5 mM MgCl2, and 150 mM NaCl. 4 μM GDP loaded biotinylated KRas^G12C was prepared in assay buffer and 50 μl added into each well of a 96 well polypropylene assay plate (Greiner, #651201) containing 500 nl of 1 mM test compounds (final concentration 10 μM), this was allowed to react for 4 hours before the addition of 50 μl 1% Formic acid to quench the reaction. The plate was sealed before reading on a Xevo G2 QTOF (Waters) and Acquity LC system (Waters). 10 μl of sample was injected onto a Xbridge BEH300; C4; 3.5 um; 2.1×50 mm column (Waters) running a 3 minute gradient. Blank samples were run in between each test sample.
Data was analysed in Mass Lynx software (Waters), the Total ion count (TIC) trace was used and the eluted protein peak data combined. Using the combined spectrum the data was deconvoluted using MaxEnt1 method. The peak area for apo-protein KRas^G12C (APO) and KRAS+relative cmpd mass (adduct) were measured, and a percentage adduct was calculated using the following calculation: Percent adduct=100*(area of adduct peak/(sum of APO+adduct peaks)

In turn, `C=CC(=O)N1CCN2c3c(cnc4c(OC)c(-c5c(O)cccc5F)c(Cl)cc34)OC[C@H]2C1` (single isomer, unassigned) [Compound 24] had an IC50 in test [1] of 70 nM. In test [2], the “KRasG12C M.S. Binding Mean adduct %” value was 96%.

In test [1], `C=CC(=O)N1CCN2c3c(cnc4cc(-c5c(O)cccc5F)c(Cl)cc34)N(C)C(=O)C2(C)C1` (single isomer, unassigned) [Compound 33, 11-Chloro-10-(2-fluoro-6-hydroxyphenyl)-4a,6-dimethyl-3-(prop-2-enoyl)-2,3,4,4a-tetrahydro-1H-pyrazino[1′,2′:4,5]pyrazino[2,3-c]quinolin-5(6H)-one] returned an IC50 of 745 nM. The “KRasG12C M.S. Binding Mean adduct %” value in test [2] was 87%.

Turning to `C=CC(=O)N1CCN2c3c(cnc4c(C)c(-c5c(O)cccc5F)c(Cl)cc34)OC[C@H]2C1` (single isomer, unassigned) [Compound 38], the IC50 in test [1] came out at 9700 nM. The “KRasG12C M.S. Binding Mean adduct %” value in test [2] is reported as 7%.

`C=CC(=O)N1CCN2c3c(cnc4cc(-c5c(F)ccc6cc[nH]c(=O)c56)c(Cl)cc34)OC[C@H]2C1` (single isomer, unassigned) [Compound 45] showed an IC50 in test [1] of 26 nM. For the same compound, in test [2], the “KRasG12C M.S. Binding Mean adduct %” value came out at 96%.

`C=CC(=O)N1CCN2c3c(cnc4c(F)c(-c5c(C)ccc6[nH]ncc56)c(Cl)cc34)N(C)C(=O)[C@H]2C1` (single isomer, unassigned) [Compound 49] yielded an IC50 in test [1] of 47 nM. The “KRasG12C M.S. Binding Mean adduct %” value in test [2] worked out at 95%.

On to `C=CC(=O)N1CCN2c3c(cnc4cc(-c5c(C)ccc6[nH]cnc56)c(Cl)cc34)OC[C@H]2C1` (single isomer, unassigned) [Compound 65], for which, in test [1], the IC50 amounted to 47 nM. Moreover, the “KRasG12C M.S. Binding Mean adduct %” value in test [2] is given as 95%.

As to `C=CC(=O)N1CCN2c3c(cnc4cc(-c5c(C)ccc6[nH]cnc56)c(Cl)cc34)OC[C@H]2C1` (single isomer, unassigned) [Compound 66], the IC50 in test [1] came out at 654 nM. In addition, in test [2], the “KRasG12C M.S. Binding Mean adduct %” value was 25%.

With `C=CC(=O)N1CCN2c3c(cnc4cc(-c5c(C)ccc6[nH]c(=O)n(C)c56)c(Cl)cc34)OC[C@H]2C1` (single isomer, unassigned) [Compound 67], the IC50 in test [1] amounted to 47 nM. Further, the “KRasG12C M.S. Binding Mean adduct %” value in test [2] was found to be 97%.

`C=CC(=O)N1CCN2c3c(cnc4cc(-c5c(C)ccc6[nH]c(=O)n(C)c56)c(Cl)cc34)OC[C@H]2C1` (single isomer, unassigned) [Compound 68] showed an IC50 in test [1] of 11400 nM. Besides, the “KRasG12C M.S. Binding Mean adduct %” value in test [2] came out at 4%.

In the case of `C=CC(=O)N1CCN2c3c(cnc4cc(-c5c(C)ccc6cc[nH]c(=O)c56)c(Cl)cc34)OC[C@H]2C1` (single isomer, unassigned) [Compound 69], in test [1], the IC50 came to 2700 nM. In addition, in test [2], the “KRasG12C M.S. Binding Mean adduct %” value came out at 12%.

The compound `C=CC(=O)N1CCN2c3c(cnc4cc(-c5c(C)ccc6cc[nH]c(=O)c56)c(Cl)cc34)OC[C@H]2C1` (single isomer, unassigned) [Compound 70] came in with an IC50 in test [1] of 49 nM. Also, the “KRasG12C M.S. Binding Mean adduct %” value in test [2] is reported as 94%.

`C=CC(=O)N1CCN2c3c(cnc4cc(-c5c(C)ccc6[nH]c(=O)[nH]c56)c(Cl)cc34)OC[C@H]2C1` (single isomer, unassigned) [Compound 71] came in with an IC50 in test [1] of 47 nM. In test [2], the “KRasG12C M.S. Binding Mean adduct %” value amounted to 94%.

In turn, `C#Cc1cc2c3c(cnc2cc1-c1c(C)ccc2[nH]ncc12)OC[C@H]1CN(C(=O)C=C)CCN31` (single isomer, unassigned) [Compound 75] displayed an IC50 in test [1] of 96 nM. Also, the “KRasG12C M.S. Binding Mean adduct %” value in test [2] was 96%.

Consider `C=CC(=O)N1CCN2c3c(cnc4c(F)c(-c5c(C)ccc6[nH]cnc56)c(Cl)cc34)OC[C@H]2C1` (single isomer, unassigned) [Compound 77], for which the 50% inhibitory concentration (IC50) in test [1] came out at 28 nM. For the same compound, the “KRasG12C M.S. Binding Mean adduct %” value in test [2] was determined as 60%.

In the case of `C=CC(=O)N1CCN2c3c(cnc4c(F)c(-c5c(C)ccc6c5C(=O)NC6)c(Cl)cc34)OC[C@H]2C1` (single isomer, unassigned) [Compound 86], in test [1], the IC50 is 41 nM. In addition, the “KRasG12C M.S. Binding Mean adduct %” value in test [2] was found to be 95%.

For `C=CC(=O)N1CCN2c3c(cnc4c(F)c(-c5c(O)cccc5F)c(Cl)cc34)NC(=O)[C@H]2C1` (single isomer, unassigned) [Compound 88], the IC50 in test [1] was 14 nM. In test [2], the “KRasG12C M.S. Binding Mean adduct %” value is recorded as 96%.

Turning to `C=CC(=O)N1CCN2c3c(cnc4c(C)c(-c5c(O)cccc5F)c(C)nc34)N(C)C(=O)[C@H]2C1` (single isomer, unassigned) [Compound 92], the IC50 in test [1] amounted to 82 nM. In test [2], the “KRasG12C M.S. Binding Mean adduct %” value was determined as 97%.

Regarding `C=CC(=O)N1CCN2c3c(cnc4cc(-c5c(O)cccc5F)c(Cl)cc34)OC[C@H]2C1` (single isomer, unassigned) [Example 1], in test [1], the IC50 worked out at 186 nM. Moreover, the “KRasG12C M.S. Binding Mean adduct %” value in test [2] amounted to 96%.

In turn, `C=CC(=O)N1CCN2c3c(cnc4cc(-c5c(O)cccc5F)c(Cl)cc34)OC[C@H]2C1` (single isomer, unassigned) [Example 2] returned an IC50 in test [1] of 281 nM. The “KRasG12C M.S. Binding Mean adduct %” value in test [2] is 87%.

Take `C=CC(=O)N1CCN2c3c(cnc4cc(-c5c(C)ccc6[nH]ncc56)c(Cl)cc34)OC[C@H]2C1` (single isomer, unassigned) [Example 3]: the IC50 in test [1] was 81 nM. Moreover, the “KRasG12C M.S. Binding Mean adduct %” value in test [2] is on record as 93%.

`C=CC(=O)N1CCN2c3c(cnc4c(F)c(-c5c(O)cccc5F)c(Cl)cc34)OC[C@H]2C1` (single isomer, unassigned) [Example 7]: the half-inhibitory concentration (IC50) in test [1] turned out to be 20 nM. Besides, the “KRasG12C M.S. Binding Mean adduct %” value in test [2] is given as 95%.

Take `C=CC(=O)N1CCN2c3c(cnc4c(F)c(-c5c(O)cccc5F)c(Cl)cc34)N(C)C(=O)C2C1` (single isomer, unassigned) [Example 18, 3-acryloyl-11-chloro-9-fluoro-10-(2-fluoro-6-hydroxyphenyl)-6-methyl-2,3,4,4a-tetrahydro-1H-pyrazino[1′,2′:4,5]pyrazino[2,3-c]quinolin-5(6H)-one]: the IC50 in test [1] worked out at 3500 nM. Also, the “KRasG12C M.S. Binding Mean adduct %” value in test [2] was found to be 3%.

`C=CC(=O)N1CCN2c3c(cnc4c(F)c(-c5c(O)cccc5F)c(Cl)cc34)N(C)C(=O)C2C1` (single isomer, unassigned) [Example 19, 3-acryloyl-11-chloro-9-fluoro-10-(2-fluoro-6-hydroxyphenyl)-6-methyl-2,3,4,4a-tetrahydro-1H-pyrazino[1′,2′:4,5]pyrazino[2,3-c]quinolin-5(6H)-one]: in test [1], the IC50 was > 9200 nM. Besides, the “KRasG12C M.S. Binding Mean adduct %” value in test [2] is recorded as 3%.

In test [1], `C=CC(=O)N1CCN2c3c(cnc4c(F)c(-c5c(O)cccc5F)c(Cl)cc34)N(C)C(=O)C2C1` (single isomer, unassigned) [Example 20, 3-acryloyl-11-chloro-9-fluoro-10-(2-fluoro-6-hydroxyphenyl)-6-methyl-2,3,4,4a-tetrahydro-1H-pyrazino[1′,2′:4,5]pyrazino[2,3-c]quinolin-5(6H)-one] returned an IC50 of 630 nM. For the same compound, the “KRasG12C M.S. Binding Mean adduct %” value in test [2] was found to be 51%.

For the compound `C=CC(=O)N1C[C@@H]2C(=O)N(C)c3cnc4c(F)c(-c5c(O)cccc5F)c(Cl)cc4c3N2C[C@H]1C` (single isomer, unassigned) [Example 21], in test [1], the IC50 was determined as 9500 nM. Moreover, the “KRasG12C M.S. Binding Mean adduct %” value in test [2] came out at 15%.

`C=CC(=O)N1CCN2c3c(cnc4cc(-c5c(O)cccc5F)c(Cl)c(Cl)c34)N(C)C(=O)[C@H]2C1` [Compound 60, (4aR)-11,12-Dichloro-10-(2-fluoro-6-hydroxyphenyl)-6-methyl-3-(prop-2-enoyl)-2,3,4,4a-tetrahydro-1H-pyrazino[1′,2′:4,5]pyrazino[2,3-c]quinolin-5(6H)-one]: the IC50 in test [1] worked out at 501 nM.

In test [1], `C=CC(=O)N1CCN2c3c(cnc4cc(-c5c(O)cccc5F)c(Cl)cc34)N(CC)C(=O)[C@H]2C1` [Compound 90, (4aR)-11-Chloro-6-ethyl-10-(2-fluoro-6-hydroxyphenyl)-3-(prop-2-enoyl)-2,3,4,4a-tetrahydro-1H-pyrazino[1′,2′:4,5]pyrazino[2,3-c]quinolin-5(6H)-one] gave an IC50 of 333 nM.

As usually defined, the IC50 is the concentration needed to halve the response being measured. The low end stands for higher potency, the high end for lower potency.
